From PubChem BioAssay (NCI)
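Briefly, cells in 96-well plates were exposed to five compound concentrations for 48 h, and endpoints were estimated by linear interpolation. Abbreviation: GI50, concentration required for 50% inhibition of growth. The concentration for full growth arrest is given as TGI.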

Columns and labels:
Test in all cases: inhibition of tumour cell growth, NCI panel, 48 h
MALME-3M melanoma = test system: MALME-3M melanoma
HT29 colon = test system: HT29 colon
TK-10 renal = test system: TK-10 renal
SF-268 CNS = test system: SF-268 CNS
HCT-15 colon = test system: HCT-15 colon
KM12 colon = test system: KM12 colon
UACC-257 melanoma = test system: UACC-257 melanoma
SF-539 CNS = test system: SF-539 CNS
MDA-MB-435 = test system: MDA-MB-435
SF-295 CNS = test system: SF-295 CNS
SNB-75 CNS = test system: SNB-75 CNS
NCI-H226 lung = test system: NCI-H226 lung
OVCAR-4 ovarian = test system: OVCAR-4 ovarian
HOP-62 NSCLC = test system: HOP-62 NSCLC
OVCAR-5 ovarian = test system: OVCAR-5 ovarian
SN12C renal = test system: SN12C renal
DU-145 prostate = test system: DU-145 prostate
PC-3 prostate = test system: PC-3 prostate
NCI-H460 lung = test system: NCI-H460 lung
EKVX NSCLC = test system: EKVX NSCLC
NCI-H23 lung = test system: NCI-H23 lung
ACHN renal = test system: ACHN renal
RPMI-8226 leukemia = test system: RPMI-8226 leukemia
OVCAR-3 ovarian = test system: OVCAR-3 ovarian
HOP-92 NSCLC = test system: HOP-92 NSCLC
NCI/ADR-RES ovarian = test system: NCI/ADR-RES ovarian
UACC-62 melanoma = test system: UACC-62 melanoma
SR leukemia = test system: SR leukemia
IGROV1 ovarian = test system: IGROV1 ovarian
HS 578T breast = test system: HS 578T breast
LOX IMVI melanoma = test system: LOX IMVI melanoma
U251 CNS = test system: U251 CNS
OVCAR-8 ovarian = test system: OVCAR-8 ovarian
HL-60(TB) leukemia = test system: HL-60(TB) leukemia
SK-MEL-5 melanoma = test system: SK-MEL-5 melanoma
COLO 205 colon = test system: COLO 205 colon
MDA-MB-231 breast = test system: MDA-MB-231 breast
A549 NSCLC = test system: A549 NSCLC
SW-620 colon = test system: SW-620 colon
SK-MEL-2 melanoma = test system: SK-MEL-2 melanoma
A498 renal = test system: A498 renal
NCI-H522 lung = test system: NCI-H522 lung
HCT-116 colon = test system: HCT-116 colon
SK-MEL-28 melanoma = test system: SK-MEL-28 melanoma
HCC-2998 colon = test system: HCC-2998 colon
786-0 renal = test system: 786-0 renal
SNB-19 CNS = test system: SNB-19 CNS
K-562 leukemia = test system: K-562 leukemia
T-47D breast = test system: T-47D breast
M14 melanoma = test system: M14 melanoma
MCF7 breast = test system: MCF7 breast
SK-OV-3 ovarian = test system: SK-OV-3 ovarian
UO-31 renal = test system: UO-31 renal
CAKI-1 renal = test system: CAKI-1 renal
MOLT-4 leukemia = test system: MOLT-4 leukemia
CCRF-CEM leukemia = test system: CCRF-CEM leukemia
BT-549 breast = test system: BT-549 breast
RXF 393 renal = test system: RXF 393 renal

`CCc1nn2c(C)cc(C)nc2c1Cc1ccc(/C=C/CN2CCN(CCOCCOCCN3CCN(C/C=C/c4ccc(Cc5c(CC)nn6c(C)cc(C)nc56)cc4)CC3)CC2)cc1` gave a GI50 (MALME-3M melanoma) of 1.73 µM, a TGI (MALME-3M melanoma) of 3.23 µM and a GI50 (HT29 colon) of 1.66 µM. It also gave a TGI (HT29 colon) of 3.26 µM, a GI50 (TK-10 renal) of 5.72 µM and a TGI (TK-10 renal) of 10.4 µM. The GI50 (SF-268 CNS) was 2.94 µM, the TGI (SF-268 CNS) was 8.26 µM and the GI50 (HCT-15 colon) was 1.69 µM. The TGI (HCT-15 colon) was 3.4 µM, the GI50 (KM12 colon) was 3.28 µM and the TGI (KM12 colon) was 7.96 µM. The GI50 (UACC-257 melanoma) was 1.74 µM, the TGI (UACC-257 melanoma) was 3.4 µM and the GI50 (SF-539 CNS) was 1.72 µM. For the same molecule, the TGI (SF-539 CNS) was 3.19 µM, the GI50 (MDA-MB-435) was 1.75 µM and the TGI (MDA-MB-435) was 3.26 µM. The GI50 (SF-295 CNS) was 2.95 µM, the TGI (SF-295 CNS) was 7.6 µM and the GI50 (SNB-75 CNS) was 4.09 µM. For the same molecule, the TGI (SNB-75 CNS) was 8.18 µM, the GI50 (NCI-H226 lung) was 5.09 µM and the TGI (NCI-H226 lung) was 10.9 µM. It also gave a GI50 (OVCAR-4 ovarian) of 1.8 µM, a TGI (OVCAR-4 ovarian) of 3.86 µM and a GI50 (HOP-62 NSCLC) of 4.63 µM. For the same molecule, the TGI (HOP-62 NSCLC) was 9.44 µM, the GI50 (OVCAR-5 ovarian) was 4.8 µM and the TGI (OVCAR-5 ovarian) was 9.34 µM. For the same molecule, the GI50 (SN12C renal) was 1.86 µM, the TGI (SN12C renal) was 3.99 µM and the GI50 (DU-145 prostate) was 2.88 µM. The TGI (DU-145 prostate) was 7.21 µM, the GI50 (PC-3 prostate) was 2.81 µM and the TGI (PC-3 prostate) was 7.76 µM. The GI50 (NCI-H460 lung) was 1.88 µM, the TGI (NCI-H460 lung) was 3.53 µM and the GI50 (EKVX NSCLC) was 4.26 µM. It also gave a TGI (EKVX NSCLC) of 8.84 µM, a GI50 (NCI-H23 lung) of 1.86 µM and a TGI (NCI-H23 lung) of 3.65 µM. It also gave a GI50 (ACHN renal) of 2.25 µM, a TGI (ACHN renal) of 5.2 µM and a GI50 (RPMI-8226 leukemia) of 1.87 µM. For the same molecule, the TGI (RPMI-8226 leukemia) was 4.33 µM, the GI50 (OVCAR-3 ovarian) was 2.58 µM and the TGI (OVCAR-3 ovarian) was 7.12 µM. For the same molecule, the GI50 (HOP-92 NSCLC) was 2.37 µM, the TGI (HOP-92 NSCLC) was 7.16 µM and the GI50 (NCI/ADR-RES ovarian) was 2.74 µM. The TGI (NCI/ADR-RES ovarian) was 7.88 µM, the GI50 (UACC-62 melanoma) was 1.74 µM and the TGI (UACC-62 melanoma) was 3.3 µM. The GI50 (SR leukemia) was 1.81 µM, the TGI (SR leukemia) was 4.6 µM and the GI50 (IGROV1 ovarian) was 2.8 µM. The TGI (IGROV1 ovarian) was 7.64 µM, the GI50 (HS 578T breast) was 5.14 µM and the TGI (HS 578T breast) was 12.1 µM. It also gave a GI50 (LOX IMVI melanoma) of 1.68 µM, a TGI (LOX IMVI melanoma) of 3.16 µM and a GI50 (U251 CNS) of 1.85 µM. It also gave a TGI (U251 CNS) of 3.76 µM, a GI50 (OVCAR-8 ovarian) of 1.92 µM and a TGI (OVCAR-8 ovarian) of 3.92 µM. The GI50 (HL-60(TB) leukemia) was 1.78 µM, the TGI (HL-60(TB) leukemia) was 3.74 µM and the GI50 (SK-MEL-5 melanoma) was 1.87 µM. The TGI (SK-MEL-5 melanoma) was 3.52 µM, the GI50 (COLO 205 colon) was 1.71 µM and the TGI (COLO 205 colon) was 3.22 µM. For the same molecule, the GI50 (MDA-MB-231 breast) was 1.91 µM, the TGI (MDA-MB-231 breast) was 4.13 µM and the GI50 (A549 NSCLC) was 4.25 µM. The TGI (A549 NSCLC) was 8.78 µM, the GI50 (SW-620 colon) was 1.7 µM and the TGI (SW-620 colon) was 3.31 µM. It also gave a GI50 (SK-MEL-2 melanoma) of 5.35 µM, a TGI (SK-MEL-2 melanoma) of 9.95 µM and a GI50 (A498 renal) of 5.15 µM. The TGI (A498 renal) was 9.66 µM, the GI50 (NCI-H522 lung) was 1.7 µM and the TGI (NCI-H522 lung) was 3.39 µM. It also gave a GI50 (HCT-116 colon) of 1.63 µM, a TGI (HCT-116 colon) of 3.16 µM and a GI50 (SK-MEL-28 melanoma) of 1.75 µM. The TGI (SK-MEL-28 melanoma) was 3.2 µM, the GI50 (HCC-2998 colon) was 1.77 µM and the TGI (HCC-2998 colon) was 3.48 µM. The GI50 (786-0 renal) was 1.72 µM, the TGI (786-0 renal) was 3.28 µM and the GI50 (SNB-19 CNS) was 2.94 µM. It also gave a TGI (SNB-19 CNS) of 7.95 µM, a GI50 (K-562 leukemia) of 1.79 µM and a TGI (K-562 leukemia) of 4.41 µM. The GI50 (T-47D breast) was 1.74 µM, the TGI (T-47D breast) was 3.74 µM and the GI50 (M14 melanoma) was 1.76 µM. For the same molecule, the TGI (M14 melanoma) was 3.37 µM, the GI50 (MCF7 breast) was 1.7 µM and the TGI (MCF7 breast) was 3.35 µM. For the same molecule, the GI50 (SK-OV-3 ovarian) was 5.75 µM, the TGI (SK-OV-3 ovarian) was 10.5 µM and the GI50 (UO-31 renal) was 1.42 µM. The TGI (UO-31 renal) was 3.05 µM, the GI50 (CAKI-1 renal) was 1.59 µM and the TGI (CAKI-1 renal) was 3.35 µM. The GI50 (MOLT-4 leukemia) was 2.16 µM, the TGI (MOLT-4 leukemia) was 5.13 µM and the GI50 (CCRF-CEM leukemia) was 1.64 µM. It also gave a TGI (CCRF-CEM leukemia) of 4.18 µM, a GI50 (BT-549 breast) of 4.98 µM and a TGI (BT-549 breast) of 9.52 µM. It also gave a GI50 (RXF 393 renal) of 1.68 µM and a TGI (RXF 393 renal) of 3.97 µM.
